The target in assay [1] is T1, alpha-glucosidase (Saccharomyces cerevisiae, UniProt P53341).
T1 construct: purchased Sigma-Aldrich Co. (Saint Louis, MO, USA)
The experiment in a line: biochemical. The conditions noted are these: for Binding Affinity Exp: ΔGexp calculated from IC50, T=300 K. The source says: The conditions followed that of our previous report with small modifications.

In assay [2] the test system is HepG2 cells. The conditions noted are these: read-out: hepatoprotective activity EC50; cited from earlier work.
Setting [3] is: isolated compounds, read-out: Alpha-glucosidase inhibition IC50 (isolated compounds).

Read-outs that look alike come from different tables or passages of the source.

As a reminder, the IC50 is the point on the concentration scale where inhibition reaches its midpoint. The term EC50 denotes the concentration needed to bring the measured effect to its halfway point.

T1 sequence (P53341 whole entry): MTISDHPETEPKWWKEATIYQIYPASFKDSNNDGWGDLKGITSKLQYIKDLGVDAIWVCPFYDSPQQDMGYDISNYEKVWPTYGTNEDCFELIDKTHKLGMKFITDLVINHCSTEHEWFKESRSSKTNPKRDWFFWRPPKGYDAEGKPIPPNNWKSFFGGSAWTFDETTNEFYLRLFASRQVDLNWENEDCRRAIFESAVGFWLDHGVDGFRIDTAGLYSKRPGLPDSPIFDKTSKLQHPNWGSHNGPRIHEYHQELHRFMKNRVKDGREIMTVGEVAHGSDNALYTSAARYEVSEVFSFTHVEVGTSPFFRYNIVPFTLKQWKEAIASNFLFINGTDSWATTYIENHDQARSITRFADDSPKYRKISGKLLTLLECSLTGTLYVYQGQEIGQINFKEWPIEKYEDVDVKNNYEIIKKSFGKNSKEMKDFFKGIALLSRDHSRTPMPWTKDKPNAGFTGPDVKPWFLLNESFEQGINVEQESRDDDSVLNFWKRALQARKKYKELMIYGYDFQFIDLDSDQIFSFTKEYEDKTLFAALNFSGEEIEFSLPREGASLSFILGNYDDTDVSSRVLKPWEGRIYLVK

As for `CC(C)(C)c1ccc(C(=O)c2ccc(C(C)(C)C)cc2C(C)(C)C)c(C(C)(C)C)c1` [DL4, 2,2′,4,4′-tetra-tert-butylbenzophenone], in assay [1] (setting [3]), the half-maximal inhibitory concentration (IC50) was more than 300 µM. For the compound `O=c1c(-c2ccc(O)cc2)coc2cc(O)ccc12` [DL6, daidzein], in assay [1], the IC50 was 66.9 ± 1.7 µM. In the case of `COc1cc(/C=C/C(=O)NC(=O)c2ccc(O)c(OC)c2)ccc1O` [PA6, tribulusimide D], in assay [1] (setting [3]), the IC50 turned out to be 76.2 ± 2.9 µM. Also, the “Binding Affinity Exp” value in assay [1] was -5.7 kcal/mol. In addition, the EC50 in assay [2] was 13.5 µM. As to `COc1cc(/C=C/C=O)ccc1O` [PA4, coniferyl aldehyde], in assay [1] (setting [3]), the IC50 stood at 250 ± 11.4 µM. As for `COc1cc(-c2oc3cc(O)c(OC)c(O)c3c(=O)c2OC)ccc1O` [DL8, jaceidin], the IC50 in assay [1] (setting [3]) turned out to be 282 ± 9.2 µM. Besides, the “Binding Affinity Exp” value in assay [1] was -4.9 kcal/mol. As for `O=c1c(O[C@@H]2O[C@H](CO)[C@@H](O)[C@H](O)[C@H]2O)c(-c2ccc(O)c(O)c2)oc2cc(O)cc(O)c12` [DL12, isoquercetin], in assay [1], the concentration for half-maximal inhibition (IC50) was determined as 99.8 ± 1.2 µM.

For the compound `O=Cc1ccc(CO)o1` [PA7, 5-hydroxymethylfurfural], in assay [1] (setting [3]), the IC50 was more than 300 µM. Take `CC[C@H](CC[C@@H](C)[C@H]1CC[C@H]2[C@@H]3CC=C4C[C@@H](O)CC[C@]4(C)[C@H]3CC[C@]12C)C(C)C` [DL1, β-sitosterol]: in assay [1] (setting [3]), the IC50 is more than 300 µM. Take `O=c1cc(-c2ccc(O)c(O)c2)oc2cc(O)cc(O)c12` [DL10, luteolin]: the IC50 in assay [1] (setting [3]) was 67.1 ± 1.2 µM.

For the compound `CC[C@H](CC[C@@H](C)[C@H]1CC[C@H]2[C@@H]3CC(O)C4=CC(=O)CC[C@]4(C)[C@H]3CC[C@]12C)C(C)C` (stereo partly drawn) [DL3, 6-hydroxystigmast-4-en-3-one], the IC50 in assay [1] (setting [3]) worked out at 177 ± 3.6 µM. Besides, in assay [1], the “Binding Affinity Exp” value is -5.1 kcal/mol. On to `COc1ccc(-c2oc3cc(O)c(OC)c(O)c3c(=O)c2OC)cc1OC` [DL9, bonanzin], for which, in assay [1] (setting [3]), the IC50 was more than 300 µM.

As to `CC1(C)C[C@H](O)C[C@@](C)(O)/C(O)=C\C1=O` [DL5, chakyunglupulin B], the 50% inhibitory concentration (IC50) in assay [1] (setting [3]) stood at 82.2 ± 2.2 µM. For the same compound, in assay [1], the “Binding Affinity Exp” value was -5.6 kcal/mol. For `CC[C@H](CC[C@@H](C)[C@H]1CC[C@H]2[C@@H]3CC=C4C[C@@H](O[C@@H]5O[C@H](CO)[C@@H](O)[C@H](O)[C@H]5O)CC[C@]4(C)[C@H]3CC[C@]12C)C(C)C` [DL2, daucosterol], the IC50 in assay [1] (setting [3]) is more than 300 µM. With `COc1c(-c2ccc(O)c(O)c2)oc2cc(O)cc(O)c2c1=O` [PA1, 3-O-methylquercetin], in assay [1] (setting [3]), the IC50 was more than 300 µM. With `Cc1cc(O)c2c(c1)C(=O)c1cccc(O)c1C2=O` [PA5, chrysophanol], in assay [1], the 50% inhibitory concentration (IC50) came to 98.2 ± 2.2 µM and the “Binding Affinity Exp” value is -5.5 kcal/mol.

These data come from paper PMC10538207, “Bioactive-Guided Phytochemical Investigations, In Vitro and In Silico Alpha-Glucosidase Inhibition of Two Vietnamese Medicinal Plants Dicranopteris linearis and Psychotria adenophylla” (Pharmaceuticals, 2023).
